From patent US9951063B2, “8-(piperazin-1-yl)-1,2,3,4-tetrahydro-isoquinoline derivatives” (IDORSIA PHARMACEUTICALS LTD, priority 2014, dated 2018) come the findings set out here.

The experiment has as its target human CXCR3A (Homo sapiens (Human), UniProt P49682). The experiment is described as follows: FLIPR assay (inhibition of CXCL10-induced calcium signal). Format: cell-based. The note with it: engineered CHO-K1 cells expressing human CXCR3A coupled to Galpha(16); Fluo-4-AM; CXCL10 agonist 20 nM; mean values where determined several times. The protocol: The bioactivity of compounds is tested in a fluorometric imaging plate reader (FLIPR: Molecular Devices) using engineered CHO-K1 cells expressing the human CXCR3A (GenBank: AY242128) coupled to a G protein (Galpha(16)). Cells are plated the day prior to bioassay in F12 medium supplemented with 10% FBS and G418 and hygromycin antibiotics to maintain recombinant selection. At the day of bioassay, cells are washed and dye loaded for one hour with Fluo-4-AM (Invitrogen) in Hanks Balanced Salt Solution (Invitrogen), buffered with 20 mM Hepes at pH 7.4 and sodium bicarbonate (0.038%), containing 5 mM probenecid. This buffer, but lacking the dye and containing probenecid at a concentration of 2.5 mM, is also used for washing steps (wash buffer); or lacking both dye and probenecid but supplemented with 0.1% BSA for compound dilution steps (dilution buffer). Cells are washed free of excess dye and 60 microliter of wash buffer is added. Stock solutions of test compounds are made up at a concentration of 10 mM in DMSO, and serially diluted in dilution buffer to concentrations required for inhibition dose response curves. After a 10 minute incubation period at 37° C., 10 microliters of each compound dilution are transferred from a compound plate to the plate containing the recombinant cells in the FLIPR instrument according to the manufacturer's instructions. Following basal readings, 10 microliter CXCL10 agonist at a concentration of 20 nM (from Peprotech) is added, again using the FLIPR instrument. Changes in fluorescence are monitored before and after addition of the test compounds. Emission peak values above base level after CXCL10 addition are exported after base line subtraction.
The calculated IC50 values may fluctuate depending on the daily assay performance. Fluctuations of this kind are known to those skilled in the art. In the case where IC50 values have been determined several times for the same compound, mean values are given.

human CXCR3A, sequence (P49682 whole entry): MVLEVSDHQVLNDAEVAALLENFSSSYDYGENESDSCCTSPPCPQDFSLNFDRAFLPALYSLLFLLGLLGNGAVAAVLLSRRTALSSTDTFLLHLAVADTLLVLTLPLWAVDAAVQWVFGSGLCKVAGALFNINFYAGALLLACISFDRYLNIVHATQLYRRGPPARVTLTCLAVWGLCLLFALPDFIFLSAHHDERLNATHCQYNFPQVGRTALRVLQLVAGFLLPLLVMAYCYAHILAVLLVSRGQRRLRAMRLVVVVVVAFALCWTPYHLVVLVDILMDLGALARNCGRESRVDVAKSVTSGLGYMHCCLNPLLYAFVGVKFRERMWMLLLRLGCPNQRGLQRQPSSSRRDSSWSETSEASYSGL

Usually IC50 stands for the point on the concentration scale where inhibition reaches its midpoint. As to `COc1ncc(N2CCc3c(C(F)(F)F)ccc(N4CCN(C(=O)Cn5nc(C)nc5C)[C@H](C)C4)c3C2)cn1` [Example 23, 2-(3,5-Dimethyl-[1,2,4]triazol-1-yl)-1-{(R)-4-[2-(2-methoxy-pyrimidin-5-yl)-5-trifluoromethyl-1,2,3,4-tetrahydro-isoquinolin-8-yl]-2-methyl-piperazin-1-yl}-ethanone], the IC50 worked out at 17.1 nM.
As for `COc1ncc(N2CCc3c(C(F)(F)F)ccc(N4CCN(C(=O)Cn5nc(C)cc5C)[C@H](C)C4)c3C2)cn1` [Example 24, 2-(3,5-Dimethyl-pyrazol-1-yl)-1-{(R)-4-[2-(2-methoxy-pyrimidin-5-yl)-5-trifluoromethyl-1,2,3,4-tetrahydro-isoquinolin-8-yl]-2-methyl-piperazin-1-yl}-ethanone], the figure is 3.7 nM; as for `COc1ncc(N2CCc3c(C(F)(F)F)ccc(N4CCN(C(=O)Cn5cccn5)[C@H](C)C4)c3C2)cn1` [Example 25, 1-{(R)-4-[2-(2-Methoxy-pyrimidin-5-yl)-5-trifluoromethyl-1,2,3,4-tetrahydro-isoquinolin-8-yl]-2-methyl-piperazin-1-yl}-2-pyrazol-1-yl-ethanone], 24 nM.
As for `COc1ncc(N2CCc3c(C(F)(F)F)ccc(N4CCN(C(=O)Cn5nccn5)[C@H](C)C4)c3C2)cn1` [Example 26, 1-{(R)-4-[2-(2-Methoxy-pyrimidin-5-yl)-5-trifluoromethyl-1,2,3,4-tetrahydro-isoquinolin-8-yl]-2-methyl-piperazin-1-yl}-2-[1,2,3]triazol-2-yl-ethanone], the figure is 98.5 nM; as for `COc1ncc(N2CCc3c(C(F)(F)F)ccc(N4CCN(C(=O)CCn5cccn5)[C@H](C)C4)c3C2)cn1` [Example 27, 1-{(R)-4-[2-(2-Methoxy-pyrimidin-5-yl)-5-trifluoromethyl-1,2,3,4-tetrahydro-isoquinolin-8-yl]-2-methyl-piperazin-1-yl}-3-pyrazol-1-yl-propan-1-one], 908 nM; as for `CCOc1ncc(N2CCc3c(C(F)(F)F)ccc(N4CCN(C(=O)Cn5cnc6cccnc65)CC4)c3C2)cn1` [Example 28, 1-{4-[2-(2-Ethoxy-pyrimidin-5-yl)-5-trifluoromethyl-1,2,3,4-tetrahydro-isoquinolin-8-yl]-piperazin-1-yl}-2-imidazo[4,5-b]pyridin-3-yl-ethanone], 2.4 nM.
As for `CCOc1ncc(N2CCc3c(C(F)(F)F)ccc(N4CCN(C(=O)Cn5nc(C)cc5C)CC4)c3C2)cn1` [Example 29, 2-(3,5-Dimethyl-pyrazol-1-yl)-1-{4-[2-(2-ethoxy-pyrimidin-5-yl)-5-trifluoromethyl-1,2,3,4-tetrahydro-isoquinolin-8-yl]-piperazin-1-yl}-ethanone], the figure is 30.5 nM.
On to `CCOc1ncc(N2CCc3c(C(F)(F)F)ccc(N4CCN(C(=O)Cn5nc(C)nc5C)CC4)c3C2)cn1` [Example 30, 2-(3,5-Dimethyl-[1,2,4]triazol-1-yl)-1-{4-[2-(2-ethoxy-pyrimidin-5-yl)-5-trifluoromethyl-1,2,3,4-tetrahydro-isoquinolin-8-yl]-piperazin-1-yl}-ethanone], for which the IC50 stood at 13.8 nM.
Under `CCOc1ncc(N2CCc3c(C(F)(F)F)ccc(N4CCN(C(=O)Cn5ncc6cccnc65)CC4)c3C2)cn1` [Example 31, 1-{4-[2-(2-Ethoxy-pyrimidin-5-yl)-5-trifluoromethyl-1,2,3,4-tetrahydro-isoquinolin-8-yl]-piperazin-1-yl}-2-pyrazolo[3,4-b]pyridin-1-yl-ethanone] stands 11.5 nM; under `CCOc1ncc(N2CCc3c(C(F)(F)F)ccc(N4CCN(C(=O)Cn5cc6cccnc6n5)CC4)c3C2)cn1` [Example 32, 1-{4-[2-(2-Ethoxy-pyrimidin-5-yl)-5-trifluoromethyl-1,2,3,4-tetrahydro-isoquinolin-8-yl]-piperazin-1-yl}-2-pyrazolo[3,4-b]pyridin-2-yl-ethanone], 9.83 nM.
As for `CCOc1ncc(N2CCc3c(C(F)(F)F)ccc(N4CCN(C(=O)CN5C(=O)Cc6ccccc65)CC4)c3C2)cn1` [Example 33, 1-(2-{4-[2-(2-Ethoxy-pyrimidin-5-yl)-5-trifluoromethyl-1,2,3,4-tetrahydro-isoquinolin-8-yl]-piperazin-1-yl}-2-oxo-ethyl)-1,3-dihydro-indol-2-one], the figure is 10.9 nM; as for `CCOc1ncc(N2CCc3c(C(F)(F)F)ccc(N4CCN(C(=O)Cn5cnc6cccnc65)[C@@H](C)C4)c3C2)cn1` [Example 34, 1-{(S)-4-[2-(2-Ethoxy-pyrimidin-5-yl)-5-trifluoromethyl-1,2,3,4-tetrahydro-isoquinolin-8-yl]-2-methyl-piperazin-1-yl}-2-imidazo[4,5-b]pyridin-3-yl-ethanone], 16.7 nM.
Under `CCOc1ncc(N2CCc3c(C(F)(F)F)ccc(N4CCN(C(=O)Cn5nc(C)cc5C)[C@@H](C)C4)c3C2)cn1` [Example 35, 2-(3,5-Dimethyl-pyrazol-1-yl)-1-{(S)-4-[2-(2-ethoxy-pyrimidin-5-yl)-5-trifluoromethyl-1,2,3,4-tetrahydro-isoquinolin-8-yl]-2-methyl-piperazin-1-yl}-ethanone] stands 30.8 nM.
For `CCOc1ncc(N2CCc3c(C(F)(F)F)ccc(N4CCN(C(=O)Cn5ccc(C)n5)[C@@H](C)C4)c3C2)cn1` [Example 36, 1-{(S)-4-[2-(2-Ethoxy-pyrimidin-5-yl)-5-trifluoromethyl-1,2,3,4-tetrahydro-isoquinolin-8-yl]-2-methyl-piperazin-1-yl}-2-(3-methyl-pyrazol-1-yl)-ethanone], the 50% inhibitory concentration (IC50) worked out at 6.27 nM.
Under `CCOc1ncc(N2CCc3c(C(F)(F)F)ccc(N4CCN(C(=O)CN5CCc6cccnc65)[C@@H](C)C4)c3C2)cn1` [Example 37, 2-(2,3-Dihydro-pyrrolo[2,3-b]pyridin-1-yl)-1-{(S)-4-[2-(2-ethoxy-pyrimidin-5-yl)-5-trifluoromethyl-1,2,3,4-tetrahydro-isoquinolin-8-yl]-2-methyl-piperazin-1-yl}-ethanone] stands 30.9 nM; under `Cc1nc(C)n(CC(=O)N2CCN(c3ccc(C(F)(F)F)c4c3CN(c3nc5ccc(F)cc5s3)CC4)C[C@H]2C)n1` [Example 38, 2-(3,5-Dimethyl-[1,2,4]triazol-1-yl)-1-{(R)-4-[2-(6-fluoro-benzothiazol-2-yl)-5-trifluoromethyl-1,2,3,4-tetrahydro-isoquinolin-8-yl]-2-methyl-piperazin-1-yl}-ethanone], 15.8 nM; under `C[C@@H]1CN(c2ccc(C(F)(F)F)c3c2CN(c2nc4ccc(F)cc4s2)CC3)CCN1C(=O)Cn1ncc2cccnc21` [Example 39, 1-{(R)-4-[2-(6-Fluoro-benzothiazol-2-yl)-5-trifluoromethyl-1,2,3,4-tetrahydro-isoquinolin-8-yl]-2-methyl-piperazin-1-yl}-2-pyrazolo[3,4-b]pyridin-1-yl-ethanone], 73.5 nM.
For the compound `Cc1ccn(CC(=O)N2CCN(c3ccc(C(F)(F)F)c4c3CN(c3nc5ccc(F)cc5s3)CC4)C[C@H]2C)n1` [Example 40, 1-{(R)-4-[2-(6-Fluoro-benzothiazol-2-yl)-5-trifluoromethyl-1,2,3,4-tetrahydro-isoquinolin-8-yl]-2-methyl-piperazin-1-yl}-2-(3-methyl-pyrazol-1-yl)-ethanone], the IC50 came out at 49 nM.
Under `Cc1ccnn1CC(=O)N1CCN(c2ccc(C(F)(F)F)c3c2CN(c2nc4ccc(F)cc4s2)CC3)C[C@H]1C` [Example 41, 1-{(R)-4-[2-(6-Fluoro-benzothiazol-2-yl)-5-trifluoromethyl-1,2,3,4-tetrahydro-isoquinolin-8-yl]-2-methyl-piperazin-1-yl}-2-(5-methyl-pyrazol-1-yl)-ethanone] stands 51.4 nM.
For `Cc1nc(C)n(CC(=O)N2CCN(c3ccc(C(F)(F)F)c4c3CN(c3nc(C(F)(F)F)cs3)CC4)C[C@H]2C)n1` [Example 42, 2-(3,5-Dimethyl-[1,2,4]triazol-1-yl)-1-{(R)-2-methyl-4-[5-trifluoromethyl-2-(4-trifluoromethyl-thiazol-2-yl)-1,2,3,4-tetrahydro-isoquinolin-8-yl]-piperazin-1-yl}-ethanone], the IC50 was 8.29 nM.
As for `C[C@@H]1CN(c2ccc(C(F)(F)F)c3c2CN(c2nc(C(F)(F)F)cs2)CC3)CCN1C(=O)Cn1ncc2cccnc21` [Example 43, 1-{(R)-2-Methyl-4-[5-trifluoromethyl-2-(4-trifluoromethyl-thiazol-2-yl)-1,2,3,4-tetrahydro-isoquinolin-8-yl]-piperazin-1-yl}-2-pyrazolo[3,4-b]pyridin-1-yl-ethanone], the figure is 38.6 nM; as for `Cc1ccn(CC(=O)N2CCN(c3ccc(C(F)(F)F)c4c3CN(c3nc(C(F)(F)F)cs3)CC4)C[C@H]2C)n1` [Example 44, 2-(3-Methyl-pyrazol-1-yl)-1-{(R)-2-methyl-4-[5-trifluoromethyl-2-(4-trifluoromethyl-thiazol-2-yl)-1,2,3,4-tetrahydro-isoquinolin-8-yl]-piperazin-1-yl}-ethanone], 12 nM.
